Tests used:
Antibody A (IgG1) = assay: SEC-HPLC aggregation of Antibody A (IgG1) after UV-B exposure; assay type: physicochemical; conditions: 20 mM antioxidant; 1 mg/mL Antibody A, 10 mM sodium acetate, 9% sucrose, pH 5.20; 302 nm UV-B 24 hours
Method: The SEC-HPLC conditions were as follows: a G3000 TOSOH SWXL column was used and the flowrate was set at 0.5 mL/min. […] For both IgG1 and IgG2, the mobile phase was 80 mM sodium phosphate, 300 mM sodium perchlorate, 10% isopropanol, pH 7.2, and each sample was run for 45 minutes.
For FIG. 5, the anti-streptavidin formulation was prepared having the following characteristics: 1 mg/mL anti-streptavidin mAb (IgG2), 10 mM sodium acetate, 5% sorbitol, and pH 5.00. For FIG. 6, the Antibody A formulation was prepared having the following characteristics: 1 mg/mL Antibody A (IgG1), 10 mM sodium acetate, 9% sucrose, and pH 5.20.

EPO binding to D11 = assay: EPO binding activity after metal catalyzed oxidation (Fe-EDTA, H2O2, ascorbate); parameters: species or system human; conditions: 5 mM ferulic acid; EPO 336 μg/mL in HBS pH 7.0; 0.2 mM Fe-EDTA, 0.3% H2O2, 1 mM ascorbate, 2 hours 37° C.
Method: The binding activity of therapeutic protein to a ligand (e.g. to an antibody or binding partner, or, in cases where the therapeutic was an antibody, binding activity to the specific target antigen or to protein A) was determined as follows. Carboxymethyl-dextran chains on a CM5 gold sensor chip were activated with 1-ethyl-3-(3-dimethylaminopropyl)-carbodiimide HCl (EDC) and N-hydroxysuccinimide (NETS) at a flow rate of 5 μL/min. The therapeutic protein-binding ligand of interest was injected until the desired immobilization level was achieved (above 5000 response units). Three different therapeutic protein-binding ligands were measured—Antibody A's target antigen, Protein A, and D11 (an antibody that binds to erythropoietin). For introduction of Antibody A's target antigen to the column, an 80 μg injection of the antigen, diluted in 10 mM Na Acetate pH 4.0 was introduced; for Protein A, a 4 μg injection of Protein A, diluted in 10 mM Na Acetate pH 4.5, was introduced; for D11, a […] injection of D11, diluted in 10 mM Na Acetate pH 5.0 was introduced. The remaining activated groups were blocked with 1.0 M ethanolamine-HCl, pH 8.5.
A standard curve was prepared by using native forms of the therapeutic protein of interest. […]

[1] = tested on: Antibody B binding to protein A; assay: Binding of Antibody B to protein A after UV-B exposure of the formulation; conditions: 20 mM additive; pH 6.90 phosphate buffer; 0-24 hours UV-B
Method: For the examples below involving exposure to UVB radiation, each sample was exposed to UVB light (λ≈302 nm) for varying times, using a UVP 8W model UVLMS-38 lamp at 4° C. The formulations were then analyzed using size exclusion chromatography high pressure liquid chromatography (SEC-HPLC). Aggregation (measured via SEC-HPLC analysis) and binding (measured using CM5 gold sensor chips) were measured to determine the effect of the antioxidant on aggregation and bioactivity of the therapeutic protein.
The binding activity of therapeutic protein to a ligand (e.g. to an antibody or binding partner, or, in cases where the therapeutic was an antibody, binding activity to the specific target antigen or to protein A) was determined as follows. […] The therapeutic protein-binding ligand of interest was injected until the desired immobilization level was achieved (above 5000 response units). Three different therapeutic protein-binding ligands were measured—Antibody A's target antigen, Protein A, and D11 (an antibody that binds to erythropoietin). […] The remaining activated groups were blocked with 1.0 M ethanolamine-HCl, pH 8.5.
A standard curve was prepared by using native forms of the therapeutic protein of interest. Native forms of the therapeutic protein were diluted in HBS-EP buffer (pH 7.4) to concentrations between 1 and 5 μg/mL, and then injected on the column, prepared as described above to obtain a standard curve. At the end of each sample run, regeneration buffer was used to wash away any bound therapeutic protein in preparation for subsequent injections.
Various UV-stressed antibody formulations were also diluted in HBS-EP buffer (pH 7.4) to a concentration within the standard curve region, and injected to quantitate the loss of bioactivity to its respective ligand-binding partner.

[2] = tested on: Antibody A binding to its target antigen; assay: Binding of Antibody A to its target antigen (CM5 sensor chip) after UV-B exposure of the formulation; conditions: 20 mM antioxidant; pH 5.20 acetate buffer; 302 nm UV light over 24 hours
Method: For the examples below involving exposure to UVB radiation, each sample was exposed to UVB light (λ≈302 nm) for varying times, using a UVP 8W model UVLMS-38 lamp at 4° C. The formulations were then analyzed using size exclusion chromatography high pressure liquid chromatography (SEC-HPLC). Aggregation (measured via SEC-HPLC analysis) and binding (measured using CM5 gold sensor chips) were measured to determine the effect of the antioxidant on aggregation and bioactivity of the therapeutic protein. The binding activity of therapeutic protein to a ligand (e.g. to an antibody or binding partner, or, in cases where the therapeutic was an antibody, binding activity to the specific target antigen or to protein A) was determined as follows. […] The therapeutic protein-binding ligand of interest was injected until the desired immobilization level was achieved (above 5000 response units). Three different therapeutic protein-binding ligands were measured—Antibody A's target antigen, Protein A, and D11 (an antibody that binds to erythropoietin). […] The remaining activated groups were blocked with 1.0 M ethanolamine-HCl, pH 8.5. […] Various UV-stressed antibody formulations were also diluted in HBS-EP buffer (pH 7.4) to a concentration within the standard curve region, and injected to quantitate the loss of bioactivity to its respective ligand-binding partner.

- amount of aggregate of Antibody A (SEC-HPLC) (Antibody A (IgG1)): dramatically reduced
- EPO binding activity preserved (EPO binding to D11): 100%
- binding of Antibody B to protein A after UV-B exposure [1]: prevented UV-B induced degradation
- binding of Antibody A to its target antigen after UV exposure [2]: preserved
SMILES: COc1cc(/C=C/C(=O)O)ccc1O [ferulic acid]

Reference: US12440567B2, “Aqueous antibody formulation stabilized by antioxidants for parenteral administration” (AMGEN INC., priority 2007, dated 2025)
